# Source: ChEMBL document CHEMBL4130367, “Click chemistry-based synthesis and anticancer activity evaluation of novel C-14 1,2,3-triazole dehydroabietic acid hybrids” (Eur J Med Chem, 2017)
# Experiments:
# SK-OV-3 = test: Cytotoxicity against human SKOV3 cells assessed as reduction in cell viability after 72 hrs by MTT assay; format: functional, cell-based; details: SK-OV-3, 72 h
# PC-3 = test: Cytotoxicity against human PC3 cells assessed as reduction in cell viability after 72 hrs by MTT assay; format: functional, cell-based; details: PC-3, 72 h
# MDA-MB-231 = test: Cytotoxicity against human MDA-MB-231 cells assessed as reduction in cell viability after 72 hrs by MTT assay; format: functional, cell-based; details: MDA-MB-231, 72 h
# [1] = Octanol-water partition coefficient, log P of the compound; format: physicochemical
# MCF7 = test: cells; details: Homo sapiens, MCF7, 72 h
# Description: Cytotoxicity against human MCF7 cells assessed as reduction in cell viability after 72 hrs by MTT assay
# NCI/ADR-RES [2] = test: Growth inhibition of human MCF7/ADR cells at 2.5 to 5 uM after 72 hrs by MTT assay relative to control; format: functional
# NCI/ADR-RES [3] = test: Growth inhibition of human MCF7/ADR cells after 72 hrs by MTT assay; format: functional, cell-based
Compound,IC50 (SK-OV-3),IC50 (PC-3),IC50 (MDA-MB-231),logP [1],IC50 (MCF7),growth inhibition (GI) (NCI/ADR-RES [2]),growth inhibition (GI) (NCI/ADR-RES [3])
COC(=O)c1nnn(CC(=O)Nc2c(C(C)C)ccc3c2CC[C@H]2[C@](C)(C(=O)OC)CCC[C@]32C)c1C(=O)OC,25.3 µM,49 µM,8.2 µM,3.67,15.6 µM,–,–
COC(=O)[C@]1(C)CCC[C@]2(C)c3ccc(C(C)C)c(NC(=O)Cn4cc(-c5ccc([N+](=O)[O-])cc5)nn4)c3CC[C@@H]12,77.3 µM,> 100 µM,> 100 µM,5.16,> 100 µM,–,–
CC(C)[C@]12O[C@H]1[C@@H]1O[C@@]13[C@@]1(C)CCC4=C(COC4=O)[C@@H]1C[C@@H]1O[C@@]13C2=O [TRIPTONIDE],–,0.02 µM,0.03 µM,–,0.03 µM,–,–
COC(=O)[C@]1(C)CCC[C@]2(C)c3ccc(C(C)C)c(N)c3CC[C@@H]12,6.1 µM,25.4 µM,24.1 µM,–,31.1 µM,–,–
CCOC(=O)c1cn(CC(=O)Nc2c(C(C)C)ccc3c2CC[C@H]2[C@](C)(C(=O)OC)CCC[C@]32C)nn1,22.9 µM,15.4 µM,21.3 µM,3.97,16.1 µM,–,–
COC(=O)[C@]1(C)CCC[C@]2(C)c3ccc(C(C)C)c(NC(=O)Cn4cc(C5CC5)nn4)c3CC[C@@H]12,19.4 µM,12.3 µM,16.2 µM,4.11,24.2 µM,–,–
COC(=O)[C@]1(C)CCC[C@]2(C)c3ccc(C(C)C)c(NC(=O)Cn4cc(-c5ccccn5)nn4)c3CC[C@@H]12,> 100 µM,> 100 µM,> 100 µM,4.05,> 100 µM,–,–
COC(=O)[C@]1(C)CCC[C@]2(C)c3ccc(C(C)C)c(NC(=O)Cn4cc(-c5ccc6ccccc6c5)nn4)c3CC[C@@H]12,45.3 µM,9.1 µM,27 µM,6.38,12.1 µM,–,–
COC(=O)[C@]1(C)CCC[C@]2(C)c3ccc(C(C)C)c(NC(=O)Cn4cc(-c5cccc(F)c5)nn4)c3CC[C@@H]12,91.2 µM,> 100 µM,> 100 µM,5.34,68.8 µM,–,–
COC(=O)[C@]1(C)CCC[C@]2(C)c3ccc(C(C)C)c(NC(=O)CN=[N+]=[N-])c3CC[C@@H]12,> 100 µM,> 100 µM,60.7 µM,–,52.1 µM,–,–
COC(=O)[C@]1(C)CCC[C@]2(C)c3ccc(C(C)C)c(NC(=O)Cn4cc(Cc5ccccc5)nn4)c3CC[C@@H]12,59.4 µM,> 100 µM,31.9 µM,5.72,> 100 µM,–,–
COC(=O)[C@]1(C)CCC[C@]2(C)c3ccc(C(C)C)c(NC(=O)Cn4cc(-c5ccccc5OC)nn4)c3CC[C@@H]12,1.4 µM,2.3 µM,1.8 µM,5.21,1 µM,–,–
COC(=O)[C@]1(C)CCC[C@]2(C)c3ccc(C(C)C)c(NC(=O)Cn4cc(-c5cccnc5)nn4)c3CC[C@@H]12,> 100 µM,30 µM,41.9 µM,4.13,> 100 µM,–,–
COC(=O)[C@]1(C)CCC[C@]2(C)c3ccc(C(C)C)c(NC(=O)Cn4cc(-c5ccccc5F)nn4)c3CC[C@@H]12,15.2 µM,8.7 µM,10 µM,5.36,19.4 µM,–,–
COC(=O)[C@]1(C)CCC[C@]2(C)c3ccc(C(C)C)c(NC(=O)Cn4cc(CBr)nn4)c3CC[C@@H]12,> 100 µM,> 100 µM,60 µM,4.47,> 100 µM,–,–
COC(=O)[C@]1(C)CCC[C@]2(C)c3ccc(C(C)C)c(NC(=O)Cn4cc(-c5ccccc5)nn4)c3CC[C@@H]12,4.8 µM,3.4 µM,3 µM,5.2,3.7 µM,–,–
COC(=O)[C@]1(C)CCC[C@]2(C)c3ccc(C(C)C)c(NC(=O)Cn4cc(-c5ccc(F)cc5)nn4)c3CC[C@@H]12,1.8 µM,2.6 µM,1 µM,5.31,1.9 µM,–,–
COC(=O)[C@]1(C)CCC[C@]2(C)c3ccc(C(C)C)c(NC(=O)Cn4cc(-c5cccs5)nn4)c3CC[C@@H]12,> 100 µM,> 100 µM,57.1 µM,4.98,> 100 µM,–,–
COC(=O)[C@]1(C)CCC[C@]2(C)c3ccc(C(C)C)c(NC(=O)CCl)c3CC[C@@H]12,69.7 µM,71.2 µM,> 100 µM,–,51.6 µM,–,–
COC(=O)[C@]1(C)CCC[C@]2(C)c3ccc(C(C)C)c(NC(=O)Cn4cc(-c5ccc(OC)cc5)nn4)c3CC[C@@H]12,1.4 µM,1.9 µM,1.8 µM,5.28,1.4 µM,>50%,Dose-dependent effect
O=c1[nH]cc(F)c(=O)[nH]1 [FLUOROURACIL],20.8 µM,13.7 µM,24.5 µM,–,5.2 µM,–,–
COC(=O)[C@]1(C)CCC[C@]2(C)c3ccc(C(C)C)c(NC(=O)Cn4cc(CNc5nc(Cl)nc(Cl)n5)nn4)c3CC[C@@H]12,92.1 µM,> 100 µM,> 100 µM,5.12,> 100 µM,–,–
COC(=O)[C@]1(C)CCC[C@]2(C)c3ccc(C(C)C)c(NC(=O)Cn4cc(-c5ccc(OC(F)(F)F)cc5)nn4)c3CC[C@@H]12,20.3 µM,12.1 µM,23.4 µM,6.17,9.2 µM,–,–
COC(=O)[C@]1(C)CCC[C@]2(C)c3ccc(C(C)C)c(NC(=O)Cn4cc(-c5ccncc5)nn4)c3CC[C@@H]12,> 100 µM,> 100 µM,> 100 µM,3.91,> 100 µM,–,–
COC(=O)[C@]1(C)CCC[C@]2(C)c3ccc(C(C)C)c(NC(=O)Cn4cc(-c5ccc(-c6ccccc6)cc5)nn4)c3CC[C@@H]12,16 µM,11.1 µM,8.9 µM,6.99,9.5 µM,–,–
COC(=O)[C@]1(C)CCC[C@]2(C)c3ccc(C(C)C)c(NC(=O)Cn4cc(-c5cccc([N+](=O)[O-])c5)nn4)c3CC[C@@H]12,> 100 µM,> 100 µM,87.5 µM,5.13,91.1 µM,–,–
COC(=O)[C@]1(C)CCC[C@]2(C)c3ccc(C(C)C)c(NC(=O)Cn4cc([Si](C)(C)C)nn4)c3CC[C@@H]12,65.2 µM,94.3 µM,> 100 µM,6.04,> 100 µM,–,–
COC(=O)[C@]1(C)CCC[C@]2(C)c3ccc(C(C)C)c(NC(=O)Cn4cc(-c5cc(OC)cc(OC)c5)nn4)c3CC[C@@H]12,3.3 µM,5.2 µM,1.4 µM,5.24,8.9 µM,–,–
COC(=O)[C@]1(C)CCC[C@]2(C)c3ccc(C(C)C)c(NC(=O)Cn4cc(-c5cccc(OC)c5)nn4)c3CC[C@@H]12,0.9 µM,1.1 µM,1.4 µM,5.23,0.8 µM,>50%,Dose-dependent effect
COC(=O)[C@]1(C)CCC[C@]2(C)c3ccc(C(C)C)c(NC(=O)Cn4cc(-c5cccc(NC(C)=O)c5)nn4)c3CC[C@@H]12,3.9 µM,10.1 µM,5.9 µM,4.39,1.5 µM,–,–
